This test addresses T1, human GPR84 receptor (Homo sapiens, UniProt Q9NQS5).
T1 construct: host or cells: HEK293, transiently transfected
Nature of the test: Gαi biosensor BRET assay (GPR84 antagonism vs agonist ZQ-16). The format is cell-based. The conditions noted are these: HEK293 cells, 200 nmol/L agonist ZQ-16; for IC50: Gαi biosensor BRET assay; for inhibition at 10 µM: tested at 10 μM (concentration code D); for inhibition at 2 µM: tested at 2 μM (concentration code A). The text has this:
Background—The following assays can be used for determination of GPR84 activation in living HEK293 cells. The Gai BRET biosensor (Gagnon et al., 2018; Gales et al., 2006. Nat Struct Mol Biol. 13, 778-86; Saulieres et al., 2012. Nat Chem Biol. 8, 622-30) allows to directly monitor GPR84-mediated activation of Gai. The Gai biosensor consists of a Rluc8-tagged Gai2 subunit, a GFP10-tagged Gy2 subunit, and an untagged GB1. Agonist stimulation and GPR84 activation triggers a physical separation between the RLuc8-Gai donor and the GFP10-Gy2 acceptor, resulting in a decrease in BRET signal whose amplitude is correlated to ligand efficacy (Gales et al., 2006). Moreover, signaling functions of GPCRs are tightly regulated by endocytosis, the targeting of receptors to endosomes and their sorting to lysosomes or recycling to the plasma membrane. The early endosomes (EEs) trafficking assay (Namkung et al., 2016. Nat Commun. 7, 12178) uses Rluc8-tagged GPR84 and Renilla GFP (rGFP) attached to the FYVE domain from human endofin/zinc finger FYVE domain-containing protein 16, which binds phosphatidylinositol 3-phosphate in EEs. Agonist stimulation of GPR84-Rluc8 leads to trafficking of the receptor to EEs, and ensuing increase of the donor concentration relative to the rGFP-FYVE acceptor anchored in the same cellular compartment, and thus results in an increase in BRET signal.
Plasmids—The cDNA clones for human GPR84 receptor, human Gai2, GB1, and Gy2 were obtained from the cDNA Resource Center (www.cdna.org). GFP10 (F64L, S147P, S202F and H231L variant of Aequorea victoria Green Fluorescent Protein) gBlocks gene fragments (Integrated DNA Technologies, IA) and linker were inserted in frame at the N-terminus of human Gy2. Rluc8 (A55T, C124A, S130A, K136R, A143M, M185V, M253L, and S287L variant of the Renilla reniformis luciferase) gBlocks gene fragment was inserted with linkers in frame in between residues 91 and 92 of Gai2 or at the C-terminus of GPR84. The FYVE domain from human endofin (residues Q739 to K806) attached in frame at the C terminus of a humanized Renilla GFP (rGFP), were synthesized as gBlocks gene fragments.
Bioluminescence Resonance Energy Transfer (BRET) Measurement-HEK293 cells were transfected with GPR84-Rluc8 and rGFP-FYVE for the EEs trafficking biosensor or with GPR84, Gai2-Rluc8, GFP10-Gy2, and GB1 for the Ga; biosensor. The following day, transiently transfected cells were seeded in 96-well white clear bottom microplates coated with poly-D-lysine and left in culture for 24 hours. Cells were washed once with Tyrode's buffer (140 mmol/L NaCl, 1 mmol/L CaCl2), 2.7 mmol/L KCl, 0.49 mmol/L MgCl2, 0.37 mmol/L NaH2PO4, 5.6 mmol/L glucose, 12 mmol/L NaHCO3, and 25 mmol/L HEPES, pH 7.5) before performing assays in Tyrode's buffer. Test compounds were incubated with cells for 5 (Gai) or 15 (EEs) minutes at 37° C. before addition of 200 nmol/L of the GPR84 agonist ZQ-16 (2-(Hexylthio)-6-hydroxy-4 (3H)-pyrimidinone) for 5 minutes at room temperature (Gai) or 30 minutes at 37° C. (EEs). The Rluc8 substrate coelenterazine 400A (Prolume, Lakeside, A Z) was added at a final concentration of 5 μmol/L and BRET readings were collected using an Infinite M1000 microplate reader (Tecan, Morrisville, N C). BRET2 readings between Rluc8 and GFP10 or rGFP were collected by sequential integration of the signals detected in the 370 to 450 nm (Rluc8) and 510 to 540 nm (GFP10, rGFP) windows. The BRET signal was calculated as the ratio of light emitted by acceptor (GFP10, rGFP) over the light emitted by donor (Rluc8). The values were corrected to net BRET by subtracting the background BRET signal obtained in cells transfected with Rluc8 constructs alone. Ligand-promoted net BRET values were calculated by subtracting vehicle-induced net BRET from ligand-induced net BRET.
In general terms: In BRET a luciferase serves as donor, and the signal depends on an acceptor being close.

Molecules are shown by their SMILES.

For orientation: IC50 means the concentration at which inhibition is half-maximal. The term inhibition denotes how much of the control response was suppressed. The low end stands for a weak effect, the high end for a strong effect.

T1 sequence (Q9NQS5 whole entry): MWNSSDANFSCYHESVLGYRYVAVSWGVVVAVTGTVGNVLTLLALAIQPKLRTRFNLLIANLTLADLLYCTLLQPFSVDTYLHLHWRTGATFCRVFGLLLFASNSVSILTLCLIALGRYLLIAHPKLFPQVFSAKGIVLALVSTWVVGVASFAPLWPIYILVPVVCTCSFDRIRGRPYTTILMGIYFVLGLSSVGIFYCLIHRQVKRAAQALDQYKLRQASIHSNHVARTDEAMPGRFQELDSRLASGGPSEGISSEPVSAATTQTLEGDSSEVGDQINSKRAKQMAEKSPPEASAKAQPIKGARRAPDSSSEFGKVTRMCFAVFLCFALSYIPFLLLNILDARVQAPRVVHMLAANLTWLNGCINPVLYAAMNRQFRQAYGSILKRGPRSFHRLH

As for `Cc1cc(OCC(=O)NC2CCOCC2)cc(=O)n1[C@H](C)c1ccc(C#CC2CC2)cc1` [Compound I-66], the half-maximal inhibitory concentration (IC50) is 0.3 to 1 µM and the inhibition at 10 µM lay in the range of 50 to 75%.

Molecule `Cc1cc(OCC(=O)N2CCCC2)cc(=O)n1[C@H](C)c1ccc(C#CC2CC2)cc1` [Compound I-2] came in with an IC50 of no more than 0.3 µM and an inhibition at 2 µM greater than 75%.

With `Cc1cc(OCC(=O)N2CCCCC2)cc(=O)n1[C@H](C)c1ccc(C#CC2CC2)cc1` [Compound I-341], the IC50 was no more than 0.3 µM and the inhibition at 2 µM was greater than 75%.

The molecule `COc1cncnc1COc1cc(C)n([C@H](C)c2ccc(C#CC3CC3)cc2)c(=O)c1` [Compound I-4] gave an inhibition at 10 µM greater than 75%.

For the molecule `Cc1nc(OCC(=O)N(C)C2COC2)cc(=O)n1[C@H](C)c1ccc(C#CC2CC2)cc1` [Compound I-68], the 50% inhibitory concentration (IC50) was no more than 0.3 µM and the inhibition at 10 µM was greater than 75%.

As for `Cc1cc(OCC(=O)N(C)C)cc(=O)n1[C@H](C)c1ccc(C#CC(=O)O)cc1` [Compound I-264], the inhibition at 10 µM is less than 25%.

Regarding `Cc1cc(OCC(=O)N2CC(CO)C2)cc(=O)n1[C@H](C)c1ccc(C#CC2CC2)cc1` [Compound I-291], the half-maximal inhibitory concentration (IC50) is no more than 0.3 µM and the inhibition at 2 µM was greater than 75%.

Molecule `Cc1cc(OCC(=O)N(C)C2CCOCC2)cc(=O)n1[C@H](C)c1ccc(C#CC2CC2)cc1` [Compound I-57] came in with a concentration for half-maximal inhibition (IC50) of no more than 0.3 µM and an inhibition at 2 µM greater than 75%.

`Cc1cc(OCC(=O)N2CCCC2)cc(=O)n1[C@H](C)c1ccc(C#CC2CC2)c(F)c1` [Compound I-25]: the half-maximal inhibitory concentration (IC50) is no more than 0.3 µM and the inhibition at 2 µM is greater than 75%.

With `Cc1cc(OCc2nnnn2C2CC2)cc(=O)n1[C@H](C)c1ccc(C#CC2CC2)cc1` [Compound I-331], the inhibition at 2 µM is greater than 75%.

`Cc1cc(OCc2nnn[nH]2)cc(=O)n1[C@H](C)c1ccc(C#CC2CC2)cc1` [Compound I-259] yielded a concentration for half-maximal inhibition (IC50) of no more than 0.3 µM and an inhibition at 2 µM greater than 75%.

`Cc1cc(OCC2(N(C)C)CC2)cc(=O)n1[C@H](C)c1ccc(C#CC2CC2)c(F)c1` [Compound I-31] displayed an inhibition at 10 µM of 25 to 50%.

`Cc1cc(OCC(=O)N2CC3CC3C2)cc(=O)n1[C@H](C)c1ccc(C#CC2CC2)cc1` (some centres unmarked) [Compound I-284] returned an IC50 of no more than 0.3 µM and an inhibition at 2 µM greater than 75%.

In turn, `Cc1cc(OCC2COCCO2)cc(=O)n1C(C)c1ccc(OCC2CCN(C(=O)C3CC3)CC2)c(F)c1` (centres unmarked) [Compound I-16] returned an inhibition at 10 µM of less than 25%.

`Cc1cc(OCC(=O)N(C)C2CNC2)cc(=O)n1[C@H](C)c1ccc(C#CC2CC2)cc1` [Compound I-78] gave an inhibition at 10 µM greater than 75%.

The molecule `Cc1cc(OCc2cnc(NS(=O)(=O)C(F)(F)F)nc2)cc(=O)n1[C@H](C)c1ccc(C#CC2CC2)cc1` [Compound I-82] gave a concentration for half-maximal inhibition (IC50) of no more than 0.3 µM and an inhibition at 2 µM greater than 75%.

`Cc1noc(COc2cc(C)n([C@H](C)c3ccc(C#CC4CC4)c(F)c3)c(=O)c2)n1` [Compound I-18] gave an inhibition at 10 µM greater than 75%.

Take `Cc1cc(OCC(=O)N2CC3(CC3)C2)cc(=O)n1[C@H](C)c1ccc(C#CC2CC2)cc1` [Compound I-344]: the IC50 was no more than 0.3 µM and the inhibition at 2 µM is greater than 75%.

The molecule `Cc1cc(OCC(=O)N(C)C2CN(C)C2)cc(=O)n1[C@H](C)c1ccc(C#CC2CC2)cc1` [Compound I-59] returned an inhibition at 10 µM greater than 75%.

`Cc1cc(OCC(=O)N2CCC[C@@H]2C(F)(F)F)cc(=O)n1[C@H](C)c1ccc(C#CC2CC2)cc1` [Compound I-254]: the IC50 is no more than 0.3 µM and the inhibition at 2 µM was greater than 75%.

The molecule `Cc1cc(OCC(=O)N2CC3(CCN(C)CC3)C2)cc(=O)n1[C@H](C)c1ccc(C#CC2CC2)cc1` [Compound I-79] registered an inhibition at 10 µM greater than 75%.

With `Cc1nnc(COc2cc(C)n([C@H](C)c3ccc(C#CC4CC4)c(F)c3)c(=O)c2)o1` [Compound I-17], the IC50 is no more than 0.3 µM and the inhibition at 2 µM was greater than 75%.

Values taken from patent US20260055117A1, “SUBSTITUTED PYRIDONE GPR84 ANTAGONISTS AND USES THEREOF” (Liminal BioSciences Limited, priority 2022, published 2026).
